{"source": "patent US20220225611A1", "about": "“NON-NATURAL INSECT PHEROMONE BLEND COMPOSITIONS” (Provivi, Inc., priority 2019, published 2022)", "origin": "cited, not measured here", "key": {"C. suppressalis": {"tested_on": "C. suppressalis", "details": "Chen et al. (2018)"}, "S. incertulas": {"tested_on": "S. incertulas", "details": "Cork & Souza (1996)"}}, "data": [{"smiles": "CCCCCCCC/C=C\\CCCCCCCC=O", "note": "[Z9-18Ald, (Z)-9-Octadecenal]", "values": [{"measurement": "effect on attractiveness of a pheromone mixture", "setting": "C. suppressalis", "result": "reduces the attractiveness"}]}, {"smiles": "CCCC/C=C\\CCCCCCCCCCCC=O", "note": "[Z13-18Ald, (Z)-13-Octadecenal]", "values": [{"measurement": "effect of presence in a pheromone blend on mating disruption", "setting": "S. incertulas", "result": "not be produce increased mating disruption"}]}]}
